Data as given in patent US7482362B2, “Substituted-4-quinolones” (priority 2000, dated 2009).

Key:
[1] = system: Human peripheral blood mononuclear cells (PBMC); assay: In vitro proliferation assay of ConA-stimulated human PBMC (3H-thymidine); assay type: cell-based; details: ConA 1 μg/ml, 0.78125 to 100 μM; FIG. 4A
Experimental: (§1) Human peripheral blood mononuclear cells (PBMC) were isolated from heparinised whole blood by buoyant density centrifugation over Histopague 1077 (Sigma, Poole, UK) 600 g for 20 minutes. PBMC harvested from the ‘buffy’ layers were washed and then aliquoted into 96-well plates at 100,000 per well. PBMC were exposed to bacterial quorum sensing molecules (PQS or OdDHL) at concentrations ranging from 0.78125 to 100 μM and then stimulated with 1 μg/ml of Concanavalin A (ConA). After an overnight culture 50 μl of the culture supernatant was removed for the detection of IL-2 released by ‘sandwich’ ELISA. The cells were returned to culture for another 24 hours before 0.25 μCi per well of ^3H-thymidine was added. Following an 18-hour pulse the human PBMC were harvested onto fibreglass filters which were then counted in the presence of MicroScint-O with the Packard TopCount scintillation counter.

IL-2 = IL-2 release from ConA-stimulated human PBMC, sandwich ELISA; assay type: cell-based; details: ConA 1 μg/ml, culture supernatant, FIG. 4B
Experimental: as §1, with “The cells were returned to culture for another 24 hours before 0.25 μCi per well of ^3H-thymidine was added.” left out
Human leucocytes when stimulated with ConA released the cytokine IL-2. The levels of cytokine produced in the culture supernatants after 24 h were determined in a ‘sandwich’ ELISA. […] Following four washes, the bound biotinylated antibody was detected with 50 μl of a 1:1,000 dilution of Streptavidin-peroxidase (BD Pharmingen, UK). […] The enzyme reaction was stopped with 50 μl of 2.5 M H2SO4 after a development of 10 minutes at room temperature and the development was read at 450 nm with a spectrophotometric 96-well plate reader.

TNF-α = assay: In vitro LPS stimulation of human PBMC for the release of TNF-α, sandwich ELISA; assay type: cell-based; details: FIG. 4C
Experimental: Human PBMC, at 100,000 cell per well, were stimulated with 1×10^−5 μg/ml LPS E. coli strain 055:B5. Following culture for 24 hours the cell culture supernatants were collected and tested for TNF-α levels by ‘sandwich’ ELISA similarly described above for the IL-2 detection assay.

murine splenocytes = assay: ConA mitogen-stimulated proliferation of murine splenocytes ([3H]-thymidine incorporation); assay type: cell-based, mouse (BALB/c); details: ConA 1 μg/ml, 100,000 spleen cells, compound about 10 to 0.2 μM; FIG. 1
Experimental: 1. ConA Mitogen-Stimulated Proliferation of Murine Splenocytes
The concanavalin A (ConA) cell proliferation assay was used to assess the effect of the title compound on T-cell activation and proliferation. Proliferation was assessed by the incorporation of [^3H]-thymidine into DNA. Eight-week-old female BALB/c mice were obtained from Harlan (Bicester, Oxon, UK) and given food and water ad libitum. Splenocyte suspensions were prepared by removing the spleens and placing them into RPMI 1640 medium. The spleens were forced through 70 μm pore size wire gauzes using the plunger from a 5 ml syringe to produce a single cell suspension. The cells were pelleted by centrifugation, and erythrocytes were lysed with 0.017M Tris, 0.144M ammonium chloride buffer, pH 7.2. Leucocytes were washed twice with RPMI 1640 medium with 2% (vol/vol) foetal calf serum (FCS) and resuspended in complete cell culture medium (CTCM) consisting of RPMI 1640 medium with 5% FCS, 2 mM L-glutamine, and 5×10−5 M 2-mercaptoethanol. The title compound was tested at doubling down dilutions ranging from about 10 to 0.2 μM in a final volume of 200 μl of CTCM, containing ConA (Sigma, Poole, UK) at 1 μg/ml and 100,000 spleen cells. […] After the addition of 25 μl of MicroScint-O (Packard) to each well the filters were counted with the Packard TopCount scintillation counter. […]

Mono Mac 6 cells = assay: Mono Mac 6 cellular viability by MTS conversion to formazan; assay type: cell-based, human; details: Mono Mac 6, 100,000 cells per well, overnight exposure, 3.90625 to 500 μM; FIG. 2, 3
Experimental: The human monocytic cell line, Mono Mac 6, was treated with concentrations of bacterial quorum sensing molecules 2-heptyl-3-hydroxy-4(1H)quinolone (PQS), N-(3-oxododecanoyl)-L-homoserine lactone (OdDHL) and N-(3-oxohexanoyl)-L-homoserine lactone. Cells at 100,000 per well were exposed to quorum sensing molecules ranging from 3.90625 to 500 μM after which the cells were stimulated with 10 ng/ml E. coli LPS and 5 ng/ml phorbol-myristrate acetate to induce the overnight release of TNF-αinto the culture media. A tetrazolium compound (3-(4,5-dimethylthazol-2-yl)-5-(3-carboxymethoxyphenyl)-2-(4-sulfophenyl)-2H-tetrazolium, inner salt MTS was added to the cells to determine cellular viability after treatment with the quorum sensing molecules. MTS is bioreduced by cells into a formazan product that is soluble in tissue culture medium. The production of formazan was determined by measuring the absorbance of the compound at 450 nm. The results are shown in FIG. 2. A titration of cell numbers was included to correlate to the number of viability cells in the treated wells as set out in the table below.

Structure (SMILES) | human PBMC cell proliferation [1] | IL-2 secretion (IL-2) | TNF-α production (TNF-α; LPS E. coli 055:B5, 24 hours) | splenocyte proliferation (counts per minute, [3H]-thymidine incorporation) (murine splenocytes) | cell viability, as adjudged by MTS conversion (Mono Mac 6 cells) | TNF-α production at high dose (TNF-α; LPS-stimulated, high dose) | TNF-α production at low dose (TNF-α; LPS-stimulated, low dose)
CCCCCCCCCC(=O)CC(=O)N[C@H]1CCOC1=O [OdDHL, N-(3-oxododecanoyl)-L-homoserine lactone] | inhibits | inhibits | inhibits | – | – | – | –
CCCCCCCc1[nH]c2ccccc2c(=O)c1O [PQS, 2-heptyl-3-hydroxy-4(1H)quinolone] | – | – | – | inhibits | no effect | may enhance | no effect
